# According to patent US20050163815A1, “Use of plant materials as a terrestrial molluscicidal and/or molloscrepellant agent” (priority 2002, published 2005):
# Test system: Deroceras reticulatum
# Assay: Laboratory terraria barrier test on blotting paper (winter wheat seed hollowing, slug mortality)
# Assay type: in vivo
# Settings: for slug mortality: barrier on blotting paper
# Description: Plastic trays (0.07 m^2) were lined with unbleached blotting paper and saturated with de-ionised water. Three groups of eight winter wheat seeds were placed into each tray and each group surrounded with approximately 1-2 g of test material, forming a barrier with approximately 1 cm diameter. Four slugs (Deroceras reticulatum) pre-starved for 24-48 hours were introduced to the trays. The tests were performed under controlled conditions (12 hours light 15° C.: 12 hours dark 15° C., 90% humidity). Five replicates were prepared per condition.
# The trays were observed daily, for seven days, for seed hollowing and mortality. After the seven days, the slugs were replaced with naive slugs and the test run for a further seven days. Mortality was indicated by failure to respond to 12-volt D.C. stimuli.
# Note: i) In all the experiments, a negative control was prepared consisting of slugs only, sawdust only, or “alcoholic” sawdust. ii) Metaldehyde (4%) was used as a positive control, to compare the toxicity properties of the 100% plant raw materials, rather than as a physical barrier.
# The method is identical to that used in Example 1 above.
compound,measurement,setting,value
"CC1OC(C)OC(C)OC(C)O1 (stereo not drawn) [metaldehyde (4%), metaldehyde]",seed hollowing,"barrier around winter wheat seeds on blotting paper, first seven days (days 1 to 7)",1%
same,slug mortality,days 8 to 14,100%
same,slug mortality,first seven days,90%
